In US20070249648A1, “Novel Diazaspiroalkanes and Their Use for Treatment of Ccr8 Mediated Diseases” (priority 2003, published 2007):
Where a name gives a salt, the structure may show the parent alone.

Biological target: T1, human recombinant chemokine CCR8 receptor (Homo sapiens, UniProt P51685)
T1 construct: purchased Euroscreen ES-136-M; host or cells: CHO-K1 cells (membrane preparation)
Assay: CCL1 SPA Binding Assay
Conditions: 125I CCL1 (30 pM) binding to membranes from CHO-K1 cells transfected with CCR8, Wheat Germ Agglutinin SPA beads; typical data
Description: Membranes from CHO-K1 cells transfected with human recombinant chemokine CCR8 receptor (ES-136-M) were purchased from Euroscreen. Membrane preparations are stored at −70C in 7.5 mM Tris-Cl pH 7.5, 12.5 mM MgCl2, 0.3 mM EDTA, 1 mM EGTA, 250 mM sucrose until used.
The CCR8 membranes ([…]) were preincubated with Wheat Germ Agglutinin SPA beads (4.05 mg/ml) in assay buffer (50 mM HEPES, 1 mM CaCl2x2H2O, 5 mM MgCl2x6H2O, 75 mM NaCl, 0.1% BSA) at pH=7.4 for 2 hours on ice. A 10-point dose-response curve (final concentrations 50 μM, 16.7 μM, 5.6 μM, 1.9 μM, 0.62 μM, 0.21 μM, 0.069 μM, 0.023 μM) was prepared by diluting compounds by serial dilution 1:3 in DMSO. In the screening plate (Polystyrene NBS plates, Costar Corning 3604) 1 μl from the DMSO solutions of compounds was transferred into each well. 1 μl of DMSO was added to the blank control wells and 1 μl unlabeled CCL1 (300 nM) was added to background control wells. 50 μl of the SPA bead-membrane mixture was added into each well. Finally, 50 μl (30 pM) ^125I CCL1 (2000 Ci/mM) was added to each well. Plates were then incubated at RT with shaking (700 rpm) for 90 minutes followed by 30 minutes at RT without shaking. The plate was read in a Wallac MicroBeta counter for 2 minutes/well.

T1 sequence (P51685 whole entry): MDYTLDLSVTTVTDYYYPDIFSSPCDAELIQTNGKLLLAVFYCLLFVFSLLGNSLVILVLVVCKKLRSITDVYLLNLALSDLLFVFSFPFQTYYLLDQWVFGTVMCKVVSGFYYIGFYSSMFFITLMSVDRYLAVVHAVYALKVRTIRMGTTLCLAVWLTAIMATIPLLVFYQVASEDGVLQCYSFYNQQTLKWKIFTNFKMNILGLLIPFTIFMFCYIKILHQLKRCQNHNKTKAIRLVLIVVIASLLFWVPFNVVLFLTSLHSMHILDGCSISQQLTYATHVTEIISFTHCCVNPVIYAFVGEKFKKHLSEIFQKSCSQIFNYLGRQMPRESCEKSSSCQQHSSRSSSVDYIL

| IC50 [µM] | SMILES |
| --- | --- |
| 0.165 | CCCOc1ccccc1CN1CCC2(CC1)CCN(C(=O)c1ccccc1)CC2 [3-benzoyl-9-(2-propoxybenzyl)-3,9-diazaspiro[5.5]undecane trifluoroacetate] |
| 0.71 | Cc1noc(C)c1COc1ccccc1CN1CCC2(CC1)CCN(C(=O)c1ccccc1)CC2 [3-benzoyl-9-{2-[(3,5-dimethylisoxazol-4-yl)methoxy]benzyl}-3,9-diazaspiro[5.5]undecane trifluoroacetate] |
